Activity calls are given as the source filed them. The rule behind the calls is not given here.
Legend:
[1] = Effect on HDAC6 protein expression in human A549 cells assessed as change in HDAC6 protein expression at 0.4 uM incubated for 5 hrs followed by drug wash-out and measured following drug wash-out by western blot analysis relative to control; type: functional
Histone deacetylase 2 = Histone deacetylase 2 (Homo sapiens, UniProt Q92769); test: Inhibition of C-terminal FLAG-tagged human full length recombinant HDAC2 (1 to 488 residues) expressed in Sf9 cells using Boc-Lys(acetyI)-AMC as substrate preincubated with enzyme for 1 hr followed by substrate addition and measured after 30 mins by fluorescence based analysis
[2] = molecular target: T1, Protein deacetylase HDAC6 (Homo sapiens) (UniProt Q9UBN7); details: A549, dose 80.0 nM, time 5.0 hrs
T1 sequence (whole entry): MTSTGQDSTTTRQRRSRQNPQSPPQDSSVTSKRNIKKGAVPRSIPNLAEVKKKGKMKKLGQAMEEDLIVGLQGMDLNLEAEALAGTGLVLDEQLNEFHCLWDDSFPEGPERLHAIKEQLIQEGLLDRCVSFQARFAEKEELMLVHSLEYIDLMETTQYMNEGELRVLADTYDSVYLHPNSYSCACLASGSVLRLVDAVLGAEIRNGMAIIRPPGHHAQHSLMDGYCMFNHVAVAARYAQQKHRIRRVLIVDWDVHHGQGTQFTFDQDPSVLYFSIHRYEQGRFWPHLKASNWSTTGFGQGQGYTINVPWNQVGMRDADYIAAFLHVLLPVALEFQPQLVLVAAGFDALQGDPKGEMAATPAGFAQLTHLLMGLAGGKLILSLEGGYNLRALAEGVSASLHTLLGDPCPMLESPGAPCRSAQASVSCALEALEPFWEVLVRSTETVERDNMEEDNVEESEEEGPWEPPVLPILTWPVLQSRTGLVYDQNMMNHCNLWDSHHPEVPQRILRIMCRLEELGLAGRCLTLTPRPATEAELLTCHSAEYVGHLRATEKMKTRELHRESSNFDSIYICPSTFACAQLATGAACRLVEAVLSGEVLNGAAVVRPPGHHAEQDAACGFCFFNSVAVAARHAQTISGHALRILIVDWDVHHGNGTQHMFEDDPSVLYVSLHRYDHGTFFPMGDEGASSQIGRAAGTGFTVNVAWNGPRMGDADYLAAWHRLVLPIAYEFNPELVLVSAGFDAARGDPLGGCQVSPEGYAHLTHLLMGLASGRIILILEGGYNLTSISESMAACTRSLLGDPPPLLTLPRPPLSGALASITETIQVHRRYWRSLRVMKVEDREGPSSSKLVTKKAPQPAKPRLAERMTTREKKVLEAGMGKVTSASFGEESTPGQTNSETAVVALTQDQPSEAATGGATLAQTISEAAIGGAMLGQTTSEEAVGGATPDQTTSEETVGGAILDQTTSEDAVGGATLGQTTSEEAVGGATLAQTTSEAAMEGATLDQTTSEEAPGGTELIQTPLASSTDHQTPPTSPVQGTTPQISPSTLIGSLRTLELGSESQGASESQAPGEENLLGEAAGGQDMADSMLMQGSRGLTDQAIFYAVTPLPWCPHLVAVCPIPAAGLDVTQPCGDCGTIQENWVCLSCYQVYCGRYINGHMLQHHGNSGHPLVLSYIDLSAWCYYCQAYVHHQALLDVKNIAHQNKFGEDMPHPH

RPMI-8226 [3] = test: Antiproliferative activity against human RPMI-8226 cells assessed as inhibition of cell proliferation incubated for 48 hrs by CCK8 assay; type: functional, cell-based; details: RPMI-8226, 48 h
RPMI-8226 [4] = test: Induction of cell cycle arrest in human RPMI-8226 cells assessed as proportion of cells at G2/M phase at 0.1 uM incubated for 24 hrs by PI staining based flow cytometry (reference value: 19.8%); type: functional
RPMI-8226 [5] = test: Induction of apoptosis in human RPMI-8226 cells assessed as proportion of necrotic cells at 0.1 uM incubated for 24 hrs by AnnexinV-FITC/PI staining based flow cytometry (reference value: 0.49%); type: functional, cell-based
[6] = Metabolic stability of the compound in rat liver microsomes assessed as parent compound remaining measured after 60 mins in presence of NADPH by LC-MS/MS analysis; type: ADME, Microsome; details: read-out: Stability
[7] = molecular target: T2, Class 1 histone deacetylase (Homo sapiens) (UniProt Q13547+O15379+Q92769+Q9BY41); test: Irreversible inhibition of class 1 HDAC in human A549 cells assessed as acetyl histone H4 level at 0.4 uM incubated for 5 hrs followed by drug wash-out for 6 hrs by western blot analysis relative to control; type: cell-based
RPMI-8226 [8] = test: Induction of apoptosis in human RPMI-8226 cells assessed as proportion of necrotic cells at 0.5 uM incubated for 24 hrs by AnnexinV-FITC/PI staining based flow cytometry (reference value: 0.49%); type: functional, cell-based
RPMI-8226 [9] = test: Induction of cell cycle arrest in human RPMI-8226 cells assessed as proportion of cells at S phase at 0.1 uM incubated for 24 hrs by PI staining based flow cytometry (reference value: 46.7%); type: functional
[10] = molecular target: T1, Protein deacetylase HDAC6 (Homo sapiens); test: Inhibition of HDAC6 in human A549 cells assessed as acetyl alpha-tubulin level at 2 uM incubated for 5 hrs by western blot analysis relative to control; type: cell-based
[11] = molecular target: Histone deacetylase 3/Nuclear receptor corepressor 2 (HDAC3/NCoR2) (Homo sapiens, UniProt O15379); test: Inhibition of C-terminal His-tagged human HDAC3 (1 to 428 residues)/N-terminal GST-tagged human NCOR2 (395 to 489 residues) expressed in baculovirus-infected Sf9 cells using Boc-Lys(acetyI)-AMC as substrate preincubated with enzyme for 1 hr followed by substrate addition and measured after 30 mins by fluorescence based analysis
[12] = Intrinsic clearance in human liver microsomes in presence of NADPH by LC-MS/MS analysis; type: ADME, Microsome; details: read-out: CLH
[13] = Half-life in mouse liver microsomes in presence of NADPH by LC-MS/MS analysis; type: ADME, Microsome
[14] = molecular target: T2, Class 1 histone deacetylase (Homo sapiens); test: Irreversible inhibition of class 1 HDAC in human A549 cells assessed as acetyl histone H4 level at 0.4 uM incubated for 5 hrs followed by drug wash-out for 1 hr by western blot analysis relative to control; type: cell-based
[15] = Metabolic stability of the compound in mouse liver microsomes assessed as parent compound remaining measured after 60 mins in presence of NADPH by LC-MS/MS analysis; type: ADME, Microsome; details: read-out: Stability
Histone deacetylase 1 = Histone deacetylase 1 (Homo sapiens, UniProt Q13547); test: Inhibition of C-terminal His/FLAG-tagged human full length recombinant HDAC1 (1 to 482 residues) expressed in Sf9 cells using Boc-Lys(acetyI)-AMC as substrate preincubated with enzyme for 1 hr followed by substrate addition and measured after 30 mins by fluorescence based analysis
[16] = Effect on HDAC6 protein expression in human A549 cells assessed as change in HDAC6 protein expression at 0.4 uM incubated for 5 hrs followed by drug wash-out for 24 hrs by western blot analysis relative to control; type: functional
[17] = Effect on HDAC6 protein expression in human A549 cells assessed as change in HDAC6 protein expression at 0.4 uM incubated for 5 hrs followed by drug wash-out for 6 hrs by western blot analysis relative to control; type: functional

Sequence of Histone deacetylase 3/Nuclear receptor corepressor 2 (HDAC3/NCoR2) (O15379 whole entry, the tested form may be a part): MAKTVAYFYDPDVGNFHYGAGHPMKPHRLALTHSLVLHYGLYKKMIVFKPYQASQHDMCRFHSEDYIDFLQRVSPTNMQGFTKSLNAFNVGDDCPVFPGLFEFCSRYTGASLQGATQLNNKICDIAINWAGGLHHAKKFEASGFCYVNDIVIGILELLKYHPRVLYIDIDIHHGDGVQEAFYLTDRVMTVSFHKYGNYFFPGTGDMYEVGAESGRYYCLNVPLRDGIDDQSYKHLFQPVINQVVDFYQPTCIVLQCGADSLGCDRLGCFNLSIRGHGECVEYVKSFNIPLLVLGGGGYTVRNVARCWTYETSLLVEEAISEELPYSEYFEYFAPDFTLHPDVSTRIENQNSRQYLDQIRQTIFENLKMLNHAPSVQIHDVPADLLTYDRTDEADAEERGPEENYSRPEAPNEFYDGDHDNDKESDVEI
Sequence of Histone deacetylase 3/Nuclear receptor corepressor 2 (HDAC3/NCoR2) (Q9Y618 whole entry, further chain, the tested form may be a part): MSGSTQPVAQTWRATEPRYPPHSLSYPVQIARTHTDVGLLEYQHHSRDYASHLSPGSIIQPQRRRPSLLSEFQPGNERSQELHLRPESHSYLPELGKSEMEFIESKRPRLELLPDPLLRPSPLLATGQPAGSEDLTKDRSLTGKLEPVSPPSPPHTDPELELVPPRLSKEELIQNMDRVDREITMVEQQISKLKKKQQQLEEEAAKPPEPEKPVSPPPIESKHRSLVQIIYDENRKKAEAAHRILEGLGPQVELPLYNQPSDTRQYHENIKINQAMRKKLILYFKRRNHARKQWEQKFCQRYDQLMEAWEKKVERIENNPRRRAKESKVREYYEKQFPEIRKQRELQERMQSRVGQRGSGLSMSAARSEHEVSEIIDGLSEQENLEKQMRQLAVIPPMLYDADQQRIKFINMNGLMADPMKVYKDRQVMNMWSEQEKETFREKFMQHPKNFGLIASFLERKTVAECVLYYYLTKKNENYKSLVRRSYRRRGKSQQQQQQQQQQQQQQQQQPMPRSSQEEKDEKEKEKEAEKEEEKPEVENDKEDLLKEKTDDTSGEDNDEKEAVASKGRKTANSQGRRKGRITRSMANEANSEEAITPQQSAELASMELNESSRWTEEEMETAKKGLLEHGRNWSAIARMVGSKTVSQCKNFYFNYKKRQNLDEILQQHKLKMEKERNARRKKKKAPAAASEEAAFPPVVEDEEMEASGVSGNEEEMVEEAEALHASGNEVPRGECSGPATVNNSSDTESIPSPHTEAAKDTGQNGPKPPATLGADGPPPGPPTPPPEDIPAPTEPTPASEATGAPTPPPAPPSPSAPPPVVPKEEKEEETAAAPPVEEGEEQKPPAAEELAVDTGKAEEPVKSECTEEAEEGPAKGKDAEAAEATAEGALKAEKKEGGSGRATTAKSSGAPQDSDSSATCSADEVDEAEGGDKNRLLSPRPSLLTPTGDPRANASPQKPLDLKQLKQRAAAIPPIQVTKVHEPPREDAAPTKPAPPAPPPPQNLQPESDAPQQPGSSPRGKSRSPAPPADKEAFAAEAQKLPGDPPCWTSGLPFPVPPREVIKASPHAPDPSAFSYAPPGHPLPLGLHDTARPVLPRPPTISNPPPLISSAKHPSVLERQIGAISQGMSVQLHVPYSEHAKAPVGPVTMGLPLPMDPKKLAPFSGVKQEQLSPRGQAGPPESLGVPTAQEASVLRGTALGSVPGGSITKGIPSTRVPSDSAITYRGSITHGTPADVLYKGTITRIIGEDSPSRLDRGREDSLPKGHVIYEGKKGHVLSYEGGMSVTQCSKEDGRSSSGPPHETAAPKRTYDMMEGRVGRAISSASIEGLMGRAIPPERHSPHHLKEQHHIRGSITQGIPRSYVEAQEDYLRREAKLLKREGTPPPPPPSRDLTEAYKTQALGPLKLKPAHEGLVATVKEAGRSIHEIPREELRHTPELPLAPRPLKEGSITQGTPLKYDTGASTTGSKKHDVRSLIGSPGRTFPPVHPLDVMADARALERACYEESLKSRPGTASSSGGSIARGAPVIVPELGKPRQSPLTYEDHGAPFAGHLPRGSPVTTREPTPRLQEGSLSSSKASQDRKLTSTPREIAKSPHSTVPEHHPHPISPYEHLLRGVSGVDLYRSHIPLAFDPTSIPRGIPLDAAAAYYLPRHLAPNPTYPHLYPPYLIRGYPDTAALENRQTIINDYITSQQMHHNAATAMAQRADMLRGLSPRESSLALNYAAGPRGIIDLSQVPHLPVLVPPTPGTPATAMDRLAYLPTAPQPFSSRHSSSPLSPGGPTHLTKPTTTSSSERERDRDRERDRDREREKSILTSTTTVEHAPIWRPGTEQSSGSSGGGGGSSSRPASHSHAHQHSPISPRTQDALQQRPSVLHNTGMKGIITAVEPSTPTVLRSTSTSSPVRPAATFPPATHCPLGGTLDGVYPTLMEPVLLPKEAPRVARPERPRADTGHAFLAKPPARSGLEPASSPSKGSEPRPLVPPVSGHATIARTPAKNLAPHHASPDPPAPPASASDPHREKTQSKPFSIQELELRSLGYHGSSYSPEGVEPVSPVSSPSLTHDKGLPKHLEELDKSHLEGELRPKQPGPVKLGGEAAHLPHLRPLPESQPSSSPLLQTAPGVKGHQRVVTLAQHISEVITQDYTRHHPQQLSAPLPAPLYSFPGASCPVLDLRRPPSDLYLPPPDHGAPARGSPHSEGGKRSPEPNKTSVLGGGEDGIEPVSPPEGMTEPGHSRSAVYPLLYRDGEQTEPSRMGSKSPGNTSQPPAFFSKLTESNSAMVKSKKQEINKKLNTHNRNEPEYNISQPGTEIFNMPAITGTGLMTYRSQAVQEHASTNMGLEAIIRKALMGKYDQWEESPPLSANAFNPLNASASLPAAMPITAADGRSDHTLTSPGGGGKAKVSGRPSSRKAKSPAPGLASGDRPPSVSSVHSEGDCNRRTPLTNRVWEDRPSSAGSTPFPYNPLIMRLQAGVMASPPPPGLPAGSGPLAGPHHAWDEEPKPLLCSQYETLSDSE
T2 sequence (O15379 whole entry, looked up): as the sequence (O15379 whole entry, the tested form may be a part) above
T2 sequence (Q13547 whole entry, looked up): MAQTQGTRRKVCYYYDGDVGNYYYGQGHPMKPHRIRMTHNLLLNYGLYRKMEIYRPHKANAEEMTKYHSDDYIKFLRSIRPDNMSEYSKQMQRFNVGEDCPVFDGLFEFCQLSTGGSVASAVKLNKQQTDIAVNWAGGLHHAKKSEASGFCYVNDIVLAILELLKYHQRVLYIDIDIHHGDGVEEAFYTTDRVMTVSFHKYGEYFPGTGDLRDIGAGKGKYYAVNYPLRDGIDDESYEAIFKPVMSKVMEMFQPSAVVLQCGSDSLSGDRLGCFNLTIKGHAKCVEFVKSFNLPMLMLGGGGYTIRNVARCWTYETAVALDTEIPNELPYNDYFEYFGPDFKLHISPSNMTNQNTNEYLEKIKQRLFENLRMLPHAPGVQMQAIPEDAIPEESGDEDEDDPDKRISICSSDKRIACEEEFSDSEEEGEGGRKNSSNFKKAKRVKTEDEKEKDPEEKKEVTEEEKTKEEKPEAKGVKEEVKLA
T2 sequence (Q92769 whole entry, looked up): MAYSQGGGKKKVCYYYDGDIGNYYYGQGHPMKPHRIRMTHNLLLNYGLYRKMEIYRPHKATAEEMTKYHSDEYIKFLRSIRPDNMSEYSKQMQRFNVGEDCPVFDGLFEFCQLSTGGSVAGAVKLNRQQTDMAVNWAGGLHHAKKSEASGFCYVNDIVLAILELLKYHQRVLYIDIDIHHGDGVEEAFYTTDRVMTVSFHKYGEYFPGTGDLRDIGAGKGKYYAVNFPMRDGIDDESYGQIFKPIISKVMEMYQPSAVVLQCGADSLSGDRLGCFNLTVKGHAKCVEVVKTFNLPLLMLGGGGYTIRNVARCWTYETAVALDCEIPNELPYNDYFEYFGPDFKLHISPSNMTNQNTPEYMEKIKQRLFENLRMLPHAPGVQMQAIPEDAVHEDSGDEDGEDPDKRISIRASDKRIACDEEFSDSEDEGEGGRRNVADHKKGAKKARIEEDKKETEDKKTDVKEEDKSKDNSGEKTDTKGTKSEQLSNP
T2 sequence (Q9BY41 whole entry, looked up): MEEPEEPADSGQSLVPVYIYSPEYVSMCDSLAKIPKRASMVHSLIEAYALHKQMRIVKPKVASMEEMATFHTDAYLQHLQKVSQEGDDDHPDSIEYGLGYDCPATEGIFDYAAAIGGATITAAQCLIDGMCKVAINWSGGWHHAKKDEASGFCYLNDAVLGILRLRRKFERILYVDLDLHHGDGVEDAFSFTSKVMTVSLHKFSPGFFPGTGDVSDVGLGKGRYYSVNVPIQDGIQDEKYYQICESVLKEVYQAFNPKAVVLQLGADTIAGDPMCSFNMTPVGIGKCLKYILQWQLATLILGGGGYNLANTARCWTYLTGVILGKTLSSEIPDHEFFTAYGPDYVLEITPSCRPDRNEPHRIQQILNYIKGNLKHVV
Sequence of Histone deacetylase 2 (Q92769 whole entry, the tested form may be a part): as the sequence (Q92769 whole entry, looked up) above
Sequence of Histone deacetylase 1 (Q13547 whole entry, the tested form may be a part): as the sequence (Q13547 whole entry, looked up) above

IC50 (Histone deacetylase 2): 1.5 µM
inhibition [2]: Active
IC50 (RPMI-8226 [3]): 0.17 µM
remaining at 1 h [6]: 0.6%
fold change (FC) [7]: 1
fold change (FC) [10]: 4.3
IC50 [11]: 8.2 µM
CLint scaled [12]: 230 mL/min/kg
half-life [13]: 1.8 min
fold change (FC) [14]: 1.2
remaining at 1 h [15]: < 0.35%
IC50 (Histone deacetylase 1): 4.8 µM
SMILES: O=C(NO)c1ccc(COc2no[n+]([O-])c2S(=O)(=O)c2ccccc2)cc1
fold change (FC) [1]: 1
Activity (RPMI-8226 [4]): 21.4%
Activity (RPMI-8226 [5]): Active
Activity (RPMI-8226 [8]): Active
Activity (RPMI-8226 [9]): 49.8%
fold change (FC) [16]: 1.3
fold change (FC) [17]: 1.1
